Assays:
[1] = target: T1, Bovine liver catalase (Bos taurus, UniProt P00432); assay: Comparative kinetic studies by ultraviolet-visible spectroscopy (compound II and Fe(II) sulfonium formation); type: biochemical; settings: CAT + 2 mM HCys, 1 mM DTPA, pH 7.4, with the additive named (dimedone 4 mM, BCN 0.1 mM, SOD 40 U)
T1 construct: Bovine liver catalase was also purchased from Sigma-Aldrich; purchased Sigma-Aldrich; host or cells: bovine liver
T1 sequence (P00432 2-527 limits assumed): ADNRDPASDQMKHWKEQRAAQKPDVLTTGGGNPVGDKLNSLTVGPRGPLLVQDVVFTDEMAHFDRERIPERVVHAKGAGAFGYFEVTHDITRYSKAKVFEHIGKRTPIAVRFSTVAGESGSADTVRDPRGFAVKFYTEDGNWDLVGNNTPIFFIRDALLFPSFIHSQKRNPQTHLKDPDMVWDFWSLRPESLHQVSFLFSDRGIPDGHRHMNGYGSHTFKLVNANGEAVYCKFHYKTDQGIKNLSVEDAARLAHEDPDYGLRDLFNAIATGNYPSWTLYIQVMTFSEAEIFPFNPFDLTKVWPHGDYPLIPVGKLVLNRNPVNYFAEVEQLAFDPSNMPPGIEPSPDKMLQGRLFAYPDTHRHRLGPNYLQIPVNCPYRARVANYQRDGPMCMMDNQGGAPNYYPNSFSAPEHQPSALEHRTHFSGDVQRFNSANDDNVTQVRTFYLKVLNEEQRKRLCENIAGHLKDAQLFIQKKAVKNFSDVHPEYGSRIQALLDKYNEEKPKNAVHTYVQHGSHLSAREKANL
Experimental: Ultraviolet–visible spectra were recorded on a Cary 300 Scan or an Uvikon 941 spectrophotometer equipped with a temperature equilibrating water bath (±1 °C). Spectral changes over time were recorded when CAT was incubated with L-HCys (0.2 or 2 mM), L-Cys (0.2, 2 or 9 mM) or GSH (1 or 30 mM) at 25 °C in a 1 ml quartz cuvette containing a solution of CAT (2.7–5.9 μM) in 50 mM KPi, pH 7.4±1 mM DTPA. Due to half-site reactivity of biological thiols with CAT, the data were recorded versus a blank containing half the concentrations of CAT used in the experiments, that is, a solution of 1.35–2.95 μM CAT in 50 mM KPi at pH 7.4±1 mM DTPA. Reactions were initiated by addition of the thiol-containing compounds. Comparative kinetic studies were performed by incubating CAT ([…] in the experiment, 1.35–1.5 μM in the blank) with 2 mM L-HCys in 50 mM KPi, pH 7.4, 1 mM DTPA with or without […], 5,5-dimethyl-1,3-cyclohexanedione (dimedone, 4 mM), BCN (0.1 mM) or SOD, 40 U). All the experiments were performed at least in duplicate.

[2] = target: T1, Bovine liver catalase; assay: Time course of catalase inactivation by HCys (activity test); type: biochemical; settings: CAT + 2 mM HCys, 1 mM DTPA, pH 7.4, with the additive named (DMPO 100 mM, dimedone 4 mM, SOD 40 U); n=2±s.d.
Experimental: CAT activity was measured on an Uvikon 941 spectrophotometer equipped with a temperature controlled water bath (±1 °C) by following the disappearance of H2O2 at 240 nm over 30–120 s at 25 °C. Catalase activity was calculated based on the rate of decomposition of hydrogen peroxide, which is proportional to the reduction of the absorbance at 240 nm. Experiments were carried out in a 3 ml quartz cuvette containing 11.7 mM H2O2 in 50 mM KPi, pH 7.4±1 mM DTPA and the reaction was initiated by adding 0.3–0.6 pmoles of CAT. The effect of biological thiols on the activity of CAT under physiological conditions was determined from a solution of CAT (30–60 nM) preincubated at 25 °C for at least 120 min as a function thiol concentration (0–40 mM for HCys and Cys, 0–100 mM for GSH) in 50 mM KPi, pH 7.4, 1 mM DTPA. Control experiments (biological thiols alone) were also performed in parallel. In each case, 10 μl of the reaction mixture (biological thiols±CAT) was added to the cuvette containing the H2O2 solution to initiate the reaction. Similarly, the effect of biological thiols on the activity of CAT under pathological conditions was determined from a solution of CAT (30–60 nM) containing a 2.124±0.386 molar excess of iron that was preincubated with various concentrations of thiols (0–1 mM) for at least 120 min at 25 °C in 50 mM KP at pH 7.4. The relative half inhibitory concentration (IC50) values were obtained by plotting the relative activity of CAT (A, in per cent) as a function of the concentration of thiol-compounds (RSH) and by fitting the data with the following four parameter logistic equation: A=Amin+(Amax−Amin)/(1+([RSH]/IC50)^n), where Amax is the maximal activity of CAT (constrained at 100%), Amin is the minimum activity achieved at saturating concentration of RSH and n is the Hillslope that characterizes the slope of the curve at its midpoint. The inactivation rate (kinact, min^−1) was extracted from the time course of the inactivation of CAT bioactivity using a fixed concentration of HCys. Accordingly, a solution of CAT (3.5–5 μM) was incubated with 2 mM L-HCys in 50 mM KPi, pH 7.4, 1 mM DTPA. Aliquots (10 μl) were taken at intervals (0–480 min), diluted 1:50 in 50 mM KPi, pH 7.4, 1 mM DTPA and assayed for CAT activity as described above. […] The effect of NaSH on the consumption of H2O2 in cell lysates was determined from a solution of cell lysates (0.5–3 mg ml^−1) incubated on ice with various concentrations of NaSH (0–200 μM). […]

[3] = target: T1, Bovine liver catalase; assay: Catalase activity (H2O2 disappearance at 240 nm) as a function of thiol concentration; type: biochemical; settings: DTPA 0-10 mM, CAT 40 nM pre-incubated 120 min, 25 °C
Experimental: CAT activity was measured on an Uvikon 941 spectrophotometer equipped with a temperature controlled water bath (±1 °C) by following the disappearance of H2O2 at 240 nm over 30–120 s at 25 °C. Catalase activity was calculated based on the rate of decomposition of hydrogen peroxide, which is proportional to the reduction of the absorbance at 240 nm. Experiments were carried out in a 3 ml quartz cuvette containing 11.7 mM H2O2 in 50 mM KPi, pH 7.4±1 mM DTPA and the reaction was initiated by adding 0.3–0.6 pmoles of CAT. The effect of biological thiols on the activity of CAT under physiological conditions was determined from a solution of CAT (30–60 nM) preincubated at 25 °C for at least 120 min as a function thiol concentration (0–40 mM for HCys and Cys, 0–100 mM for GSH) in 50 mM KPi, pH 7.4, 1 mM DTPA. Control experiments (biological thiols alone) were also performed in parallel. In each case, 10 μl of the reaction mixture (biological thiols±CAT) was added to the cuvette containing the H2O2 solution to initiate the reaction. Similarly, the effect of biological thiols on the activity of CAT under pathological conditions was determined from a solution of CAT (30–60 nM) containing a 2.124±0.386 molar excess of iron that was preincubated with various concentrations of thiols (0–1 mM) for at least 120 min at 25 °C in 50 mM KP at pH 7.4. The relative half inhibitory concentration (IC50) values were obtained by plotting the relative activity of CAT (A, in per cent) as a function of the concentration of thiol-compounds (RSH) and by fitting the data with the following four parameter logistic equation: A=Amin+(Amax−Amin)/(1+([RSH]/IC50)^n), where Amax is the maximal activity of CAT (constrained at 100%), Amin is the minimum activity achieved at saturating concentration of RSH and n is the Hillslope that characterizes the slope of the curve at its midpoint. The inactivation rate (kinact, min^−1) was extracted from the time course of the inactivation of CAT bioactivity using a fixed concentration of HCys. Accordingly, a solution of CAT (3.5–5 μM) was incubated with 2 mM L-HCys in 50 mM KPi, pH 7.4, 1 mM DTPA. Aliquots (10 μl) were taken at intervals (0–480 min), diluted 1:50 in 50 mM KPi, pH 7.4, 1 mM DTPA and assayed for CAT activity as described above. Similar experiments were performed in the presence of DMPO, 5,5-dimethyl-1,3-cyclohexanedione (dimedone) or SOD at a final concentration of 100 mM, 4 mM or 40 U, respectively. kinact values were obtained by plotting the relative activity of CAT (A, in per cent) as a function of the incubation time and the data were fitted with an exponential decay function: A=A0+ΔA × e^−kinact × t, with A0 and ΔA (A0+ΔA=100%) the residual activity and the percentage of CAT inhibition when t→∞, respectively. The effect of NaSH on the consumption of H2O2 in cell lysates was determined from a solution of cell lysates (0.5–3 mg ml^−1) incubated on ice with various concentrations of NaSH (0–200 μM). The disappearance of H2O2 was then followed at 240 nm for 2–5 min at 25 °C after the addition of 20–25 μl of the reaction mixture in a 3 ml cuvette containing 11.7 mM H2O2 in 50 mM KPi, pH 7.4. The relative half inhibitory concentration (IC50) values for NaSH were obtained by plotting the relative rate of disappearance of H2O2 (ΔA240 nm/min) as a function of the concentration of NaSH and by fitting the data with an hyperbolic decay equation. All the experiments were performed at least in triplicate.

[4] = system: M17 human neuroblastoma cells; assay: Relative specific activity of catalase (SpCAT) in cells treated with rotenone; type: cell-based; settings: BE2-M17 cells, 100 nM rotenone, 48 h
Experimental: Hek293T cells (n=2) were plated and transfected the following day with pcDNA (empty vector), Htt-N171-82Q (Htt) or Alpha-synuclein-A53T (α-Syn) plasmids (20 μg) with the calcium phosphate method. BE2-M17 cells (n=2) were plated and treated the following day with 100 nM rotenone dissolved in DMSO or DMSO alone. Hek293T and BE2-M17 cells were collected 48 h after transfection or treatment with DMSO±rotenone, respectively.
The relative specific activity (activity and quantity) of catalase in the cell lysates was determined using the kit ab118184 from Abcam (Cambridge, MA). The measurements were performed in duplicate as per the manufacturer's protocol. Briefly, catalase in cell lysates (0.1–0.2 mg cell lysates per assay) was immunocaptured within the wells of the microplate. An assay buffer, which contains H2O2 that reacts with a substrate to generate a luminescent product, was added to each well. […] Then, the quantity of catalase was measured by adding to each well an anti-catalase primary detector antibody. […] A blue colour (absorbance at 600 nm) developed in proportion to the amount of catalase bound. Luminescence and absorbance measurements were performed on an EnSpire Multilabel Reader 2300 (PerkinElmer). […] The protocol above was then followed to determine activity measurement and catalase quantification.

[5] = system: crypt and surface epithelial cells; assay: Relative specific activity of catalase (SpCAT) in rodent model of DSS-induced colitis; type: in vivo, mice; settings: DSS 3.5% in drinking water for 5 days, cells isolated day 7
Experimental: Seven-week-old male C57BL/6J mice (n=6; Envigo, Gannat, France) were acclimated for 1 week with free access to standard mouse chow and tap water. Each mouse was maintained in a cage under controlled conditions of temperature (23 °C), humidity (55±10%) and light (12:12 h light–dark cycle). Colitis was induced by the addition of DSS (3.5% (wt/vol), 36,000–50,000 MW, MP Biomedicals Illkirch-Graffenstaden, France) to the drinking water for 5 days (n=3). Healthy control animals (n=3) received fresh tap water, only. Two days after DSS arrest (day 7), mice were killed. […]
The relative specific activity (activity and quantity) of catalase in the cell lysates was determined using the kit ab118184 from Abcam (Cambridge, MA). […] Then, the quantity of catalase was measured by adding to each well an anti-catalase primary detector antibody. […] A blue colour (absorbance at 600 nm) developed in proportion to the amount of catalase bound. Luminescence and absorbance measurements were performed on an EnSpire Multilabel Reader 2300 (PerkinElmer). […] The protocol above was then followed to determine activity measurement and catalase quantification.

CC1(C)CCC=[N+]1[O-] [DMPO, 5,5-Dimethyl-1-Pyrroline-N-Oxide]
Ultraviolet–visible spectroscopy kobs(6) (CAT–Fe(IV)=O formation) [1]: 0.010 ± 0.002 min⁻¹ | kinact [2]: 0.00015 s⁻¹

O=C(O)CN(CCN(CC(=O)O)CC(=O)O)CCN(CC(=O)O)CC(=O)O [DTPA, diethylene triamine pentaacetic acid]
effect on the activity of CAT [3]: does not interfere

CC1(C)CC(=O)CC(=O)C1 [Dimedone, 5,5-dimethyl-1,3-cyclohexanedione]
Ultraviolet–visible spectroscopy kobs(6) (CAT–Fe(IV)=O formation) [1]: ^†0.019±0.003 min^−1 | kinact [2]: 0.0003 s⁻¹

C=C(C)[C@H]1Cc2c(ccc3c2O[C@@H]2COc4cc(OC)c(OC)cc4[C@@H]2C3=O)O1 [rotenone]
SpCAT versus control [4]: inhibited

Dextran Sulfate Sodium [DSS]
SpCAT versus untreated mice [5]: not modified

bicyclo[6.1.0]nonyne [BCN]
Ultraviolet–visible spectroscopy kobs(6) (CAT–Fe(IV)=O formation) [1]: 0.018 ± 0.002 min⁻¹

superoxide dismutase [SOD]
Ultraviolet–visible spectroscopy kobs(6) (CAT–Fe(IV)=O formation) [1]: 0.020 ± 0.002 min⁻¹ | Activity test kinact [2]: 0.018 ± 0.001 min⁻¹

Reference: PMC5116089, “Sulfheme formation during homocysteine S-oxygenation by catalase in cancers and neurodegenerative diseases” (Nature Communications, 2016)
